Test: mn = molality of the nth substance listed, in mol/kg
Conditions: Liquid, Vibrating tube method

[Cl-].[Li+] [lithium chloride] + CCO
mass density [kg/m3]
Conditions	323.15 K	348.15 K
140 kPa, m1 = 0.1049	–	743.86
150 kPa, m1 = 2.022	–	803.25
170 kPa, m1 = 0.3023	–	751.06
420 kPa, m1 = 1.222	–	780.84
540 kPa, m1 = 2.88	–	825.55
740 kPa, m1 = 0.5873	–	761.48
4960 kPa, m1 = 2.022	–	808.25
5060 kPa, m1 = 0.3023	–	756.68
5060 kPa, m1 = 0.5873	–	766.32
5060 kPa, m1 = 1.222	–	785.85
5080 kPa, m1 = 0.1049	–	749.63
5140 kPa, m1 = 2.88	–	829.96
10030 kPa, m1 = 2.022	–	813.19
10050 kPa, m1 = 0.5873	793.02	–
10060 kPa, m1 = 0.1049	–	755.18
10070 kPa, m1 = 0.3023	–	762.15
10080 kPa, m1 = 2.022	833.25	–
10080 kPa, m1 = 2.88	854.11	834.46
10200 kPa, m1 = 1.222	811.76	–
10210 kPa, m1 = 1.222	–	791.09
10230 kPa, m1 = 0.3023	784	–
10530 kPa, m1 = 0.5873	–	772.13
14960 kPa, m1 = 2.022	–	817.67
15060 kPa, m1 = 0.3023	788.31	–
15060 kPa, m1 = 2.88	–	838.73
15120 kPa, m1 = 0.3023	–	767.36
15230 kPa, m1 = 2.022	837.42	–
15240 kPa, m1 = 2.88	858.04	–
15280 kPa, m1 = 1.222	–	795.92
15290 kPa, m1 = 0.5873	–	776.89
15290 kPa, m1 = 1.222	816.02	–
15320 kPa, m1 = 0.1049	781.93	–
15410 kPa, m1 = 0.1049	–	760.81
15620 kPa, m1 = 0.5873	797.87	–
20030 kPa, m1 = 2.022	–	821.94
20040 kPa, m1 = 0.1049	786.01	–
20060 kPa, m1 = 0.1049	–	765.44
20060 kPa, m1 = 2.88	861.48	–
20070 kPa, m1 = 2.88	–	842.77
20150 kPa, m1 = 1.222	819.88	–
20410 kPa, m1 = 2.022	841.36	–
20450 kPa, m1 = 0.3023	792.88	–
20470 kPa, m1 = 0.5873	801.87	–
25040 kPa, m1 = 0.3023	796.57	–
25060 kPa, m1 = 0.1049	790.15	–
25060 kPa, m1 = 1.222	823.57	–
25140 kPa, m1 = 0.5873	805.52	–
25300 kPa, m1 = 2.88	864.98	–
25310 kPa, m1 = 2.022	844.84	–
30010 kPa, m1 = 2.022	847.97	–
30060 kPa, m1 = 0.3023	800.4	–
30060 kPa, m1 = 0.5873	809.15	–
30070 kPa, m1 = 2.88	867.94	–
30150 kPa, m1 = 0.1049	794.13	–
30420 kPa, m1 = 1.222	827.32	–
35020 kPa, m1 = 0.3023	803.97	–
35210 kPa, m1 = 2.88	870.9	–
35220 kPa, m1 = 0.5873	812.74	–
35410 kPa, m1 = 1.222	830.59	–
35420 kPa, m1 = 2.022	851.3	–
35610 kPa, m1 = 0.1049	798.15	–
39860 kPa, m1 = 2.88	873.36	–
39940 kPa, m1 = 0.1049	801.15	–
39960 kPa, m1 = 1.222	833.36	–
39970 kPa, m1 = 0.5873	815.82	–
39970 kPa, m1 = 2.022	853.89	–
39980 kPa, m1 = 0.3023	807.32	–
